Measurements: patent US12138236B2, “Compositions comprising N-Acetyl Methyl GABA and related methods” (MBI Distributing, priority 2020, dated 2024)
Where “and” joins values, the source holds several entries; their conditions need not be identical. Identical values can stand only once.

Tests used:
[1] = Single human subject's report on overnight sleep after self-administering N-Acetyl Methyl GABA (Example 2); format: in vivo; design: key to Sleep Quality / Restfulness/Wakefulness / Mental Clarity/Memory / Mood / Anti-inflammatory Action (decrease in pain): 1: Very Poor; 2: Poor; 3: Fair; 4: Good; 5: Excellent
Protocol: Table 2 reports a human subject's sleep quality, restfulness/wakefulness, mental clarity/memory, mood, and inflammation and pain reduction after 18 overnight sleep periods over the span of 15 weeks (October-January, as shown in Table 2), with 15 of the 18 nights occurring before the first administration of N-Acetyl Methyl GABA to the subject. Table 3 reports the subject's sleep quality and other parameters after self-administering 300 mg of N-Acetyl Methyl GABA before an overnight sleep period, 40 times over the span of 9 weeks (November-January, as shown in Table 3). Data in Tables 2 and 3 are based on a rating of sleep quality and other parameters from 1 to 5, where 1 is Very Poor, 2 is Poor, 3 is Fair, 4 is Good, and 5 is Excellent. Each morning after waking, the subject reported on the sleep quality, restfulness/wakefulness, mental clarity/memory, mood, and inflammation and pain reduction they felt, and/or with regard to sleep quality, used information from a “Sleep Cycle” app on a cell phone (Sleep Cycle, www.sleepcycle.com, Gothenburg, Sweden).
For 14 of the days reported in Table 2, before the first administration of N-Acetyl Methyl GABA, data is from a sleep app on a cell phone device. Other data in Table 2 is from the subject's experience as reported for a given sleep period. The data before first administration of N-Acetyl Methyl GABA provides a baseline of sleep patterns for the subject with no sleep aid. The average sleep quality in the subject before a first administration of N-Acetyl Methyl GABA was 73.8%. The average percentage of sleep quality improved after administration of N-Acetyl Methyl GABA according to this invention, with average sleep quality at 80.4%.

[2] = Daytime study of N-Acetyl Methyl GABA composition without melatonin, 19 subjects (Example 6); format: in vivo, human; settings: one value per patient (1-19), over baseline, 2 teaspoons (8 g) orally once daily, 14 days
Protocol: The Purpose of this study was to quantify the effectiveness of N-Acetyl Methyl GABA on FAM MS (Fatigue, Anxiety, Mood, Mind, Stress) and related symptoms and qualities. (Mind refers to mental clarity, memory and focus).
Due to the above-described effects of N-Acetyl Methyl GABA on sleep and relaxation, a sleep quality section was added to see how a “daytime” version of N-Acetyl Methyl GABA (administered without melatonin) assisted with sleep quality for daytime patients. This was also beneficial for patients that prefer not to take melatonin.
Study participants: 19 subjects
7 day pre-study symptomology (no N-Acetyl Methyl GABA taken) to record a baseline of patient symptoms.
14 day study symptomology (taking N-Acetyl Methyl GABA) to record patient symptoms.
Preferred subject would have minimum two of the following symptoms prior to study: FAMMS (Fatigue, Anxiety, Mood, Mind, Stress) (Mind defines mental clarity, memory and focus issues), sleep imbalance, insomnia, daytime energy issues.
Subjects were asked to not use any additional mind/body stress relief or natural supplements other than the N-Acetyl Methyl GABA composition (“GabaSorb® Daytime”) during the 14 day study.
Subjects were asked to take 2 teaspoons of the liquid N-Acetyl Methyl GABA composition (Gabasorb Daytime) daily in the morning or early afternoon if they suffered from two or more symptoms listed in the protocol.
The N-Acetyl Methyl GABA composition described in Table 11 was taken orally by each patient once daily.
Subjects were administered 2 teaspoons (8 g) of the liquid N-Acetyl Methyl GABA composition described above.
Ratings were made each day during the study period (7 days pre-administration, 14-days during N-Acetyl Methyl GABA administration), based on a scale of 1 to 5. Improvements are shown by increased ratings over baseline in qualities such as Stress, Anxiety, Mental Clarity and Memory, Mood, Daytime Energy, and Sleep Quality for each patient in Table 12. Patient gender and age for Table 12 are as follows: Patient 1 (P1)[…], P2[…], P3[…]; P4[…], P5[…], P6[…], P7[…], P8[…], P9[…], P10[…], P11[…], P12[…], P13[…], P14:M/22, P15:F/23, P16:M/50, P17:M/19, P18:F/44, P19:F27.

[3] = Administration of N-Acetyl Methyl GABA to other human subjects, subject reports; format: in vivo
Protocol: Subjects report more natural sleep without the morning grogginess associated with many sleep aids. Subjects report they slept all night long without waking. […] Subjects report the mind is clear and the attitude is positive after N-Acetyl Methyl GABA was administered prior to an overnight sleep period. Without being bound by theory, this may be due to anxiolytic effects of N-Acetyl Methyl GABA.

[4] = average of 40 nights, scale 1 to 5, without: 2.2
[5] = daily rating 1 to 5 after overnight sleep, 300 mg before sleep, one subject
[6] = sum of 40 daily ratings, 300 mg

COC(=O)CCCNC(C)=O [N-Acetyl Methyl GABA]
side effects reported by the subject ([1]; 300 mg before overnight sleep, 40 times over 9 weeks): No side effects | Inflammation/pain improved, percent of average score without ([1]; 2.1/1.7*100%): about 125% | Mental clarity/memory improved, percent of average score without ([1]; 2.2/2.2*100%): 100% | Mood improved, percent of average score without ([1]; 2.5/1.9*100%): about 132% | Sleep quality improved, percent of average score without ([1]; 2.5/2.2*100%): approximately 115% | Restfulness/wakefulness improved, percent of average score without ([1]; 2.6/2*100%): 130% | average sleep quality (percentage) ([1]; after administration, before first administration 73.8%, sleep app on cell phone): 80.4% | morning or mid-afternoon anxiety, subject report ([1]; after waking from the sleep periods): no longer feeling morning or mid-afternoon anxiety | Anti-inflammatory Action (decrease in pain), average score with N-Acetyl Methyl GABA ([1]; average of 40 nights, scale 1 to 5, without: 1.7): 3.8 | Mood, average score with N-Acetyl Methyl GABA ([1]; average of 40 nights, scale 1 to 5, without: 1.9): 4.4 | Restfulness/Wakefulness, average score with N-Acetyl Methyl GABA ([1]; average of 40 nights, scale 1 to 5, without: 2): 4.6 | Mental Clarity/Memory, average score with N-Acetyl Methyl GABA [1, 4]: 4.4 | Sleep Quality, average score with N-Acetyl Methyl GABA [1, 4]: 4.7 | Anti-inflammatory Action (decrease in pain) [1, 5]: 3 and 4 and 2 and 5 | Mental Clarity/Memory [1, 5]: 3 and 4 and 5 | Mood [1, 5]: 3 and 4 and 5 | Restfulness/Wakefulness [1, 5]: 3 and 4 and 5 | Sleep Quality ([1]; daily rating 1 to 5 after overnight sleep, 300 mg self-administered before sleep, one subject): 4 and 5 | Anti-inflammatory Action (decrease in pain), Total Score, 40 days [1, 6]: 153 | Mental Clarity/Memory, Total Score, 40 days [1, 6]: 177 | Mood, Total Score, 40 days [1, 6]: 176 | Restfulness/Wakefulness, Total Score, 40 days [1, 6]: 183 | Sleep Quality, Total Score, 40 days [1, 6]: 190 | Anxiety Reduced (%) [2]: 35% and 32% and 22% and 40% (2×) and 46% and 107% and 71% (2×) and 126% and 57% and 56% (2×) and 63% (3×) and 52% and 95% and 89% | Daytime Energy Improved (%) [2]: 40% and 32% and 88% (2×) and 29% and 57% and 74% and 36% and 42% and 23% and 17% and 22% (2×) and 43% and 20% and 11% and 0% and 33% (2×) | Mental Clarity/Memory Improved (%) [2]: 57% and 55% and 72% and 43% and 100% and 82% and 52% and 56% and 131% and 70% and 59% and 23% and 25% and 33% (2×) and 71% and 16% and 30% and 40% | Mood Improved (%) [2]: 20% and 94% and 39% and 68% and 100% (4×) and 120% and 152% and 88% and 129% and 107% and 85% and 65% and 60% and 69% (2×) and 112% | Sleep Quality Improved (%) [2]: 78% (2×) and 95% and 118% and 150% and 233% and 62% (2×) and 77% and 93% and 57% and 81% and 52% (3×) and 75% and 87% and 79% and 56% | Stress Reduced (%) [2]: 48% and 45% and 36% (2×) and 33% and 72% and 17% and 25% and 40% (3×) and 78% and 69% and 27% and 56% and 85% and 41% and 52% and 55% | sleep quality, subjects' report ([3]; administered prior to a sleep period): improved sleep quality | tolerability in other human subjects ([3]; human, in vivo): well tolerated
